Reference: US6017886A, “Use of NDF peptide as growth factor for sensory epithelium” (Amgen Inc., priority 1999, dated 2000)

Columns and labels:
Assay type in all cases: cell-based
[1] = tested on: utricular epithelium from seven day-old rats; assay: BrdU incorporation (mitogenic activity) in primary culture of infant rat utricular sensory epithelium; details: for number of BrdU-positive nuclei per piece of epithelium: 50 ng/ml, seventy-two hours culture, infant (seven day-old) rat epithelium, control 50±7
Protocol: (§1) Sensory edithelial cells obtained from utricles in the inner ear of both seven day-old (infant) rats and six week-old (adult) rats were isolated with the use of thermolysin treatment; see Corwin et al., Abstracts of the Association for Research in Otolaryngology, Volume 18, page 87 (1995). All edges were trimmed away and the central portion of the epithelium was cut into quarters. Epithelial cells from the infant rats were cultured in DMEM/F12 with 10% FBS (Gibco BRL, Grand Island, N.Y.), and 3 micrograms per milliliter (μg/ml) of mitosis tracer BrdU (Aldrich Chemicals, Milwaukee, Wis.) for seventy-two hours, with or without 50 nanograms per milliliter (ng/ml) of the peptide of SEQ ID NO: 1 or 50 ng/ml of recombinant derived FGF-10, recombinant derived FGF-16, recombinant derived ciliary-derived neurotrophic factor (CNTF), recombinant derived neurotrophic growth facor (NGF), recombinant derived glial-derived neurotrophic factor (GDNF), recombinant derived keratinocyte growth factor (KGF), or a control (no growth factor present). The experiment was ended by fixing in 4% paraformaldehyde for one hour.
After several washes, the explants were immunostained for calretinin (a vestibular organ hair cell marker) using rabbit antiserum (SWant Swiss Antibodies, Belinzona, Switzerland), diluted 1:10,000. The secondary antibody was goat anti-rabbit immunoglobulin conjugated to biotin, diluted 1:1,000. Extensive washes were followed by incubating the explants with egg white avidin conjugated to Cy3, diluted 1:1,000. The explants were fixed again with paraformaldehyde as described above, then processed for BrdU immunostaining (a measure of cell proliferation) using standard immunostaining protocols. The mouse monoclonal ant-BrdU antibody was obtained from Caltag Laboratories of San Franscisco, Calif. The secondary antibody, a goat anti-mouse conjugated to FITC, was obtained from Antibodies, Inc. of Davis, Calif.

[2] = tested on: adult rat utricular epithelium; assay: BrdU incorporation (mitogenic activity) in primary culture of adult rat utricular sensory epithelium; details: adult (six week-old) rat, thirteen days culture, factor added for the last five days, BrdU last two days
Protocol: as §1
For the adult rats, the total time for cell culture was thirteen days, with the peptide of SEQ ID NO: 1 or other growth factor being added for the last five days and the BrdU ([…]) for the last two days. The experiment was ended as above by fixing the explants in paraformaldehyde. […]

[3] = tested on: utricular cell line derived from a transgenic mouse; assay: Cell proliferation by ELISA for BrdU in established utricular cell line; details: 50 ng/ml added twenty-four hours prior to fixation, BrdU final sixteen hours
Protocol: An established utricular cell line was derived from a transgenic mouse, using the procedure described by Gu et al. in Abstracts of the Association for Research in Otolaryngology, Volume 21, page 16 (1998). The cell line was cultured at 37° C. for three days in DMEM/F12 (Gibco BRL), containing N2 supplement (Sigma Chemical Company, St. Louis, Mo.) in a proportion of 1:100, under conditions restricting oncogene expression. For the treated group, fifty nanograms per milliliter of the peptide of SEQ ID NO: 1 were added twenty-four hours prior to fixation. Three micrograms per milliliter of BrdU (Aldrich Chemicals) were added for the final sixteen hours.
Cell proliferation was measured by ELISA for BrdU. Briefly, cells were fixed with 4% paraformaldehyde (Amersham, Life Sciences, Cleveland, Ohio) for one hour at room temperature. After treatment with 2N HCl for twenty minutes, the cells were washed and then sequentially incubated for one hour with a monocolonal antibody against BrdU (Caltag Laboratories) and horse anti-mouse antibody conjugated to biotin (Vector Laboratories, Burlingame, Calif.). After washing, the cells were further incubated with Europium streptavidin (Wallac Inc., Gaithersburg, Md.) diluted 1:1,000 and processed for time-resolved fluorescence in accordance with the manufacturer's recommendations. The signal was read on a Victor 1420 multi-label counter (Wallac Inc.).

[4] = tested on: young rat utricular sensory epithelial cells; assay: Comparison with other NDF/heregulins, BrdU-positive nuclei in primary culture; details: 50 ng/ml, FIG. 5
Protocol: as §1
After several washes, the explants were immunostained for calretinin (a vestibular organ hair cell marker) using rabbit antiserum (SWant Swiss Antibodies, Belinzona, Switzerland), diluted 1:10,000. […]

Row | Substance | number of BrdU-positive nuclei per piece of epithelium [1] | presence of BrdU-positive nuclei in supporting cells versus control (untreated) cells ([1]; infant rat sensory epithelium primary culture, FIGS. 4A and 4B) | increase in proliferation of adult rat sensory epithelial cells over the control group [2] [fold] | ELISA reading (BrdU) relative to control (untreated) group [3] [times] | increase in induction of cell proliferation over the control [4] [fold]
1 | SHLVKCAEKEKTFCVNGGECFMVKDLSNPSRYLCKCQPGFTGARCQNYVMAS [SEQ ID NO: 1, hybrid form derived from the EGF-like domains of NDF-α and NDF-β] | 397±33 | very noticeable increase | 32.5 | 1.7 | 29
2 | FGF-16: recombinant derived FGF-16 [reference compound] | 100±16 | – | – | – | –
3 | NGF: recombinant derived neurotrophic growth facor (NGF) [reference compound] | 50±9 | – | – | – | –
